Assays:
[1] = molecular target: T1, hKv3.1 (Homo sapiens, UniProt P48547); test: Automated patch clamp (Patchliner) whole-cell electrophysiology, Kv3.1; type: cell-based; settings: 10 μM compound, CHO-K1 cells stably expressing hKv3.1; for Kv3.1 Activity at 10 μM Potentiation (%): % potentiation of peak current at −10 mV voltage step vs vehicle; for Kv3.1 Activity at 10 μM Voltage Shift (mV): voltage shift of the IV curve at V1/2
T1 construct: expressed in transfected cells
T1 sequence (P48547 1-511): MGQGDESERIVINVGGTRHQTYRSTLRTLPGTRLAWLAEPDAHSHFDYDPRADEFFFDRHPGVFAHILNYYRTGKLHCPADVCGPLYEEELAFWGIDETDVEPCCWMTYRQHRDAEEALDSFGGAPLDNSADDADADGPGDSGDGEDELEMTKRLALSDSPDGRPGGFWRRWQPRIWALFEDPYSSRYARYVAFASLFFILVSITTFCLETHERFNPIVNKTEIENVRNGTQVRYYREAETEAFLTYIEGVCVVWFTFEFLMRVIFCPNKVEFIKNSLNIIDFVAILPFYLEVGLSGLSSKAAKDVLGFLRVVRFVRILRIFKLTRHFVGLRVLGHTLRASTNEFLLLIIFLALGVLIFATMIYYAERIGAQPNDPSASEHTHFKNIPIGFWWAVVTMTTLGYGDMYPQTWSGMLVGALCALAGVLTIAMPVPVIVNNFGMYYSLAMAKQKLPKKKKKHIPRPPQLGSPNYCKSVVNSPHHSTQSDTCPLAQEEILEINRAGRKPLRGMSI
Method: (§1) hKv3.1, hKv3.2, hKv3.3, and hKv3.4 were stably expressed in CHO-K1 (Chinese hamster ovary) cells and kept under constant antibiotic selection. For in vitro assays, cells were maintained in appropriate growth medium at 37° C. and 5% CO2 in a humidified incubator.
(§2) hKv3.X expressing cells were plated in T-25 flasks for 3-4 days at 37° C. (no selection antibiotic) prior to use and grown to 80% confluence. Cells were washed twice with PBS (calcium and magnesium free) and detached with a 5-minute treatment at 37° C. with 2-3 mls of Accutase®. Cells were collected, and flask was washed in CHO-SFM II media (Life Technologies Gibco), centrifuged for 2 minutes at ˜110×g and resuspended to obtain a single cell suspension of ˜2-3×10^6 cells/ml.
(§3) The intracellular solution contained the following (in mM): KCl 50, NaCl 10, KF 60, EGTA 20, HEPES 10, adjusted to pH 7.2 with KOH and an osmolarity of 285 mOsmol. Seal enhancer was purchased from Nanion (80 mM NaCl, 3 mM KCl, 10 mM MgCl2, 35 mM CaCl2), 10 mM HEPES, pH7.4, 298 mOsmol. The external solution contained (in mM): NaCl 140, KCl 4, CaCl2) 2, MgCl2 1, HEPES 10, Glucose 5, adjusted to pH7.4 and an osmolarity of 298 mOsmol.
(§4) All compounds were initially tested at 10 uM at a final DMSO concentration of 0.33%. Compounds were dissolved in dimethylsulfoxide (DMSO) at a stock concentration of 30 mM. The compound was further diluted 1:10 to give a stock concentration of 3 mM in DMSO. The final assay solution was diluted 1:300 in External solution to give a final concentration of 10 uM. For the DMSO Control Buffer 30 uL of DMSO was added to 10 mL buffer.
(§5) All electrophysiological recordings were performed at ambient temperature (21-23° C.) using automated patch clamp (Patchliner, Nanion Technologies GmbH) in the whole-cell configuration.
(§6) Cell membrane potentials were held at −80 mV, and currents were evoked by voltage steps (1000 ms duration) from −60 to +60 mV in 10 mV increments. This was performed first with vehicle (0.33% DMSO) and then with 10 uM compound, after a 3-minute incubation period. Data was taken from 4 cells per assay.
(§7) The recordings were analysed and selected using peak current amplitude (>100 pA at the −10 mV voltage step) in the absence of compound to eliminate unsuitable cells from analysis. Peak current amplitude was measured and recorded for each voltage step and data was normalised to the maximum current at +60 mV. The normalised Kv3.x currents following addition of the compound were then compared with the currents recorded prior to compound addition (vehicle control). Positive modulation was determined as % potentiation at the voltage step of −10 mV=[current (cmpd)/current (veh)]*100−100. % potentiation ≥50% was considered acceptable. In addition, voltage shift of the IV curve at V1/2 was measured. V1/2 of ≥−5 mV was also considered acceptable. IV curves were plotted in GraphPad Prism (software version 6.0) and fitted with a Boltzmann equation, where V1/2 is the voltage at half-maximal activation.

[2] = molecular target: T2, hKv3.2 (Homo sapiens, UniProt Q96PR1); test: Automated patch clamp (Patchliner) whole-cell electrophysiology, Kv3.2; type: cell-based; settings: 10 μM compound, CHO-K1 cells stably expressing hKv3.2; for activation at 10 µM: % potentiation of peak current at −10 mV voltage step vs vehicle; for Kv3.2 Activity at 10 μM Voltage Shift (mV): voltage shift of the IV curve at V1/2
T2 construct: expressed in transfected cells
T2 sequence (Q96PR1 1-638): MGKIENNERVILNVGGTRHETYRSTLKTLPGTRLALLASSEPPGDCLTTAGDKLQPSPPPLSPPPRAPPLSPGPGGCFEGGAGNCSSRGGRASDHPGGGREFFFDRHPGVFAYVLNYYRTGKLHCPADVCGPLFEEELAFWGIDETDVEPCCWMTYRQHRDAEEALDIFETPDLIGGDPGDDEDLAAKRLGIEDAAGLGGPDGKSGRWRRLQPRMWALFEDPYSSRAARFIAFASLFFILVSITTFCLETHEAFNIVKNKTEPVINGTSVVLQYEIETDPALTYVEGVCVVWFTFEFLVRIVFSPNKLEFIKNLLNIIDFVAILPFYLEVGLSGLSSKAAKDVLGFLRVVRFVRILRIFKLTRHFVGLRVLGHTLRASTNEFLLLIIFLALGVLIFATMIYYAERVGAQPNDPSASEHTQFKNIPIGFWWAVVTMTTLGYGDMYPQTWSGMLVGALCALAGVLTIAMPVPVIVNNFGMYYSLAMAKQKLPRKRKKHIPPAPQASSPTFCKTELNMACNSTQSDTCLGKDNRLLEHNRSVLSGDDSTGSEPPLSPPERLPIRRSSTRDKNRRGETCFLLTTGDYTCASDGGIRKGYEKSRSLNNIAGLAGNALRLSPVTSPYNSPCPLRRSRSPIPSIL
Method: as §1, §2, §3, §4, §5, §6, §7

Kv3.1 Activity at 10 μM Potentiation (%) [1] [%]	Kv3.1 Activity at 10 μM Voltage Shift (mV) [1] [mV]	activation at 10 µM [2] [%]	Kv3.2 Activity at 10 μM Voltage Shift (mV) [2] [mV]	SMILES
27	−4.19	25	−1.25	COc1cc(Oc2cc(N3C(=O)NC4(CCC4)C3=O)ccn2)ccc1C [Example 34, 7-[2-(3-methoxy-4-methyl-phenoxy)-4-pyridyl]-5,7-diazaspiro[3.4]octane-6,8-dione]
25	−2.77	31	−3.78	COc1cc(Oc2cncc(N3C(=O)NC(C)(C)C3=O)c2)ccc1C [Example 39, 3-[5-(3-methoxy-4-methyl-phenoxy)-3-pyridyl]-5,5-dimethyl-imidazolidine-2,4-dione]
67	−4.46	53	−3.77	CC[C@H]1NC(=O)N(c2cc(Oc3ccc(C)c(OC)c3)ccn2)C1=O [Example 41, (5R)-5-ethyl-3-[4-(3-methoxy-4-methyl-phenoxy)-2-pyridyl]imidazolidine-2,4-dione]
45	−3.03	28	−2.81	COc1cc(Oc2ccnc(N3C(=O)NC(C)(C)C3=O)c2)ccc1C [Example 44, 3-[4-(3-methoxy-4-methyl-phenoxy)-2-pyridyl]-5,5-dimethyl-imidazolidine-2,4-dione]
19	−2.36	61	−6.69	CC[C@@]1(C)NC(=O)N(c2cc(Oc3ccc(C)c(OC)c3)ccn2)C1=O [Example 45, (5R)-5-ethyl-3-[4-(3-methoxy-4-methyl-phenoxy)-2-pyridyl]-5-methyl-imidazolidine-2,4-dione]
62	−4.26	61	−5.3	CC[C@H]1NC(=O)N(c2cccc(Oc3ccc(C)c(OC)c3)n2)C1=O [Example 48, (5R)-5-ethyl-3-[6-(3-methoxy-4-methyl-phenoxy)-2-pyridyl]imidazolidine-2,4-dione]
35	−5.32	33	−2.6	CC[C@@]1(C)NC(=O)N(c2cccc(Oc3ccc(C)c(OC)c3)n2)C1=O [Example 58, (5R)-5-ethyl-3-[6-(3-methoxy-4-methyl-phenoxy)-2-pyridyl]-5-methyl-imidazolidine-2,4-dione]
217	−10.39	121	−7.43	COc1cc(Oc2nccc(N3C(=O)NC4(CCCC4)C3=O)c2F)ccc1C [Example 90, 3-[3-fluoro-2-(3-methoxy-4-methyl-phenoxy)-4-pyridyl]-1,3-diazaspiro[4.4]nonane-2,4-dione]

Further lines, the molecule ahead of its results:

SMILES	Kv3.1 Activity at 10 μM Potentiation (%) [1] [%]	Kv3.1 Activity at 10 μM Voltage Shift (mV) [1] [mV]	activation at 10 µM [2] [%]	Kv3.2 Activity at 10 μM Voltage Shift (mV) [2] [mV]
O=C1NC2(CCCCC2)C(=O)N1c1ccnc(Oc2ccc3c(c2)OCO3)c1 [Example 35, 3-[2-(1,3-benzodioxol-5-yloxy)-4-pyridyl]-1,3-diazaspiro[4.5]decane-2,4-dione]	41	−3.4	55	−3.73
O=C1NC2(CCCC2)C(=O)N1c1ccnc(Oc2ccc3c(c2)OC(F)(F)O3)c1 [Example 36, 3-[2-[(2,2-difluoro-1,3-benzodioxol-5-yl)oxy]-4-pyridyl]-1,3-diazaspiro[4.4]nonane-2,4-dione]	85	−6.21	43	−4.8
O=C1NC2(CCC2)C(=O)N1c1ccnc(Oc2ccc3c(c2)OC(F)(F)O3)c1 [Example 37, 7-[2-[(2,2-difluoro-1,3-benzodioxol-5-yl)oxy]-4-pyridyl]-5,7-diazaspiro[3.4]octane-6,8-dione]	90	−5.21	63	−3.6
CC[C@@]1(C)NC(=O)N(c2cccc(Oc3cc(OC)cc(OC)c3)n2)C1=O [Example 70, (5R)-3-[6-(3,5-dimethoxyphenoxy)-2-pyridyl]-5-ethyl-5-methyl-imidazolidine-2,4-dione]	44	−2.08	34	−2.42
COc1cc(Oc2cccc(N3C(=O)NC4(CCCCC4)C3=O)n2)ccc1C [Example 75, 3-[6-(3-methoxy-4-methyl-phenoxy)-2-pyridyl]-1,3-diazaspiro[4.5]decane-2,4-dione]	15	−4.01	5	0
CC1(C)NC(=O)N(c2ccc(F)c(Oc3ccc4c(c3)OC(F)(F)O4)n2)C1=O [Example 84, 3-[6-[(2,2-difluoro-1,3-benzodioxol-5-yl)oxy]-5-fluoro-2-pyridyl]-5,5-dimethyl-imidazolidine-2,4-dione]	30	−2.27	14	−1.69
COc1cc(Oc2nccc(N3C(=O)NC4(CCCCC4)C3=O)c2F)ccc1C [Example 91, 3-[3-fluoro-2-(3-methoxy-4-methyl-phenoxy)-4-pyridyl]-1,3-diazaspiro[4.5]decane-2,4-dione]	150	−10.63	137	−6.75

From US12090146B2, “Substituted-pyridinyl compounds and uses thereof” (Bionomics Limited, priority 2018, dated 2024)
